Test results reported in the NIST ThermoML archive (doi:10.1016/j.jct.2015.07.028).
± gives the expanded uncertainty stated by the source.

Assay: molar heat capacity at saturation pressure
Conditions: Crystal 2, Small (less than 1 g) adiabatic calorimetry

C=CC(C)(C)O [2-methyl-3-buten-2-ol]
Conditions	molar heat capacity [J/K/mol]
5 K	0.3244 ± 0.021
5.363 K	0.4026 ± 0.021
5.571 K	0.4523 ± 0.022
5.832 K	0.524 ± 0.023
6.097 K	0.6053 ± 0.025
6.395 K	0.7063 ± 0.027
6.727 K	0.8287 ± 0.03
7.065 K	0.9656 ± 0.033
7.409 K	1.117 ± 0.036
7.759 K	1.284 ± 0.039
8.114 K	1.466 ± 0.043
8.474 K	1.662 ± 0.048
8.837 K	1.874 ± 0.052
9.202 K	2.099 ± 0.057
9.571 K	2.338 ± 0.062
9.942 K	2.587 ± 0.068
10 K	2.631 ± 0.051
10.42 K	2.931 ± 0.056
11.01 K	3.375 ± 0.062
11.6 K	3.843 ± 0.068
12.19 K	4.339 ± 0.075
12.79 K	4.858 ± 0.082
13.39 K	5.395 ± 0.089
14 K	5.954 ± 0.096
14.61 K	6.523 ± 0.1
15 K	6.921 ± 0.11
15.22 K	7.118 ± 0.11
15.95 K	7.872 ± 0.12
16.79 K	8.742 ± 0.13
17.63 K	9.598 ± 0.14
18.48 K	10.46 ± 0.15
19.32 K	11.32 ± 0.16
20 K	12.04 ± 0.13
20.18 K	12.2 ± 0.13
21.37 K	13.46 ± 0.14
22.9 K	15.06 ± 0.14
24.44 K	16.66 ± 0.15
25 K	17.22 ± 0.15
25.98 K	18.24 ± 0.16
27.53 K	19.75 ± 0.16
28.81 K	20.98 ± 0.16
30 K	22.12 ± 0.17
30.24 K	22.33 ± 0.17
31.96 K	23.92 ± 0.18
33.85 K	25.59 ± 0.19
35 K	26.55 ± 0.2
35.75 K	27.18 ± 0.2
37.65 K	28.7 ± 0.21
39.55 K	30.18 ± 0.21
40 K	30.53 ± 0.22
41.55 K	31.7 ± 0.22
43.65 K	33.27 ± 0.23
45 K	34.27 ± 0.24
45.75 K	34.79 ± 0.24
47.85 K	36.31 ± 0.25
49.95 K	37.78 ± 0.25
50 K	37.8 ± 0.25
52.05 K	39.21 ± 0.26
54.16 K	40.59 ± 0.27
56.27 K	41.96 ± 0.28
58.39 K	43.29 ± 0.28
60 K	44.33 ± 0.29
60.51 K	44.64 ± 0.29
62.64 K	45.97 ± 0.3
64.76 K	47.34 ± 0.3
66.88 K	48.71 ± 0.31
69.01 K	50.1 ± 0.32
70 K	50.7 ± 0.32
71.24 K	51.62 ± 0.33
73.58 K	53.27 ± 0.34
75.92 K	55.14 ± 0.35
77.87 K	57.21 ± 0.36
78.23 K	57.58 ± 0.36
78.27 K	57.34 ± 0.36
78.34 K	57.57 ± 0.36
79.01 K	58.22 ± 0.36
79.1 K	58.39 ± 0.36
79.23 K	58.44 ± 0.36
79.68 K	58.95 ± 0.37
79.83 K	59.11 ± 0.37
80 K	57.08 ± 0.36
80.23 K	59.74 ± 0.37
80.33 K	59.84 ± 0.37
80.34 K	59.8 ± 0.37
80.38 K	59.82 ± 0.37
80.93 K	60.61 ± 0.37
81.01 K	60.76 ± 0.38
81.36 K	61.46 ± 0.38
81.48 K	61.53 ± 0.38
81.67 K	61.8 ± 0.38
82.03 K	62.46 ± 0.38
82.27 K	62.81 ± 0.39
82.34 K	62.96 ± 0.39
82.49 K	63.36 ± 0.39
82.57 K	63.46 ± 0.39
83 K	64.02 ± 0.39
83.12 K	64.33 ± 0.39
83.61 K	65.12 ± 0.4
83.66 K	65.08 ± 0.4
84.19 K	66.18 ± 0.4
84.2 K	65.98 ± 0.4
84.31 K	66.19 ± 0.4
84.72 K	67.2 ± 0.41
84.74 K	67.26 ± 0.41
84.97 K	67.69 ± 0.41
85.28 K	68.9 ± 0.42
85.62 K	69.64 ± 0.42
85.81 K	71.17 ± 0.44
85.82 K	71.29 ± 0.44
86.07 K	73.72 ± 0.45
86.26 K	73.39 ± 0.44
86.33 K	74.69 ± 0.45
